1 cell line from the supplement of paper PMC10307832 can be followed below.

Experiment in all cases: relative viability (nuclei count vs DMSO), 5 days (fraction); higher = more cells survive
Compound in the experiment “Sulindac + Foretinib”: CC1=C(CC(=O)O)c2cc(F)ccc2/C1=C\c1ccc([S+](C)[O-])cc1 [Sulindac] + COc1cc2c(Oc3ccc(NC(=O)C4(C(=O)Nc5ccc(F)cc5)CC4)cc3F)ccnc2cc1OCCCN1CCOCC1 [Foretinib] (partner 0.25 µM)
The gist of the method: (§1)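 Relative viability equals treated-well nuclei counts divided by vehicle-well nuclei counts. Counts came from 4× images of lung cancer cell lines grown in 1536-well plates for 5 days after pin-tool dosing on the day after seeding. Dosing used one drug alone or a fixed anchor-drug dose plus five library-drug doses (not always all listed) in √10 steps, and values are medians of duplicate plates.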

Compound in the experiment “Sulindac + Crizotinib”: CC1=C(CC(=O)O)c2cc(F)ccc2/C1=C\c1ccc([S+](C)[O-])cc1 [Sulindac] + C[C@@H](Oc1cc(-c2cnn(C3CCNCC3)c2)cnc1N)c1c(Cl)ccc(F)c1Cl [Crizotinib] (partner 1 µM)
The gist of the method:
as §1

Compound in the experiment “5-Fluorouracil + OSI-027”: O=c1[nH]cc(F)c(=O)[nH]1 [5-Fluorouracil] + COc1cccc2cc(-c3nc([C@H]4CC[C@H](C(=O)O)CC4)n4ncnc(N)c34)[nH]c12 [OSI-027] (partner 0.5 µM)
Summed up: as §1

Compound in the experiment “Staurosporine + Olaparib”: CN[C@@H]1C[C@H]2O[C@@](C)([C@@H]1OC)n1c3ccccc3c3c4c(c5c6ccccc6n2c5c31)C(=O)NC4 [Staurosporine] + O=C(c1cc(Cc2n[nH]c(=O)c3ccccc23)ccc1F)N1CCN(C(=O)C2CC2)CC1 [Olaparib] (partner 8 µM)
The gist of the method: as §1

As for UMC-11, the relative viability with Sulindac + Foretinib (first compound 0.08 µM) was 1.33; with Sulindac + Foretinib (first compound 0.253 µM), 1.12; with Sulindac + Foretinib (first compound 0.8 µM) it was 0.739; with Sulindac + Foretinib (first compound 2.53 µM), 0.986; in the experiment with Sulindac + Foretinib (first compound 8 µM), 1.12; in the experiment with Sulindac + Crizotinib (first compound 0.08 µM) it was 0.862. The relative viability in the experiment with Sulindac + Crizotinib (first compound 0.253 µM) was 0.525; with Sulindac + Crizotinib (first compound 0.8 µM), 0.66; with Sulindac + Crizotinib (first compound 2.53 µM), 0.578; with Sulindac + Crizotinib (first compound 8 µM), 0.901; with 5-Fluorouracil + OSI-027 (first compound 0.02 µM), 0.445; with 5-Fluorouracil + OSI-027 (first compound 0.2 µM) it was 0.477. The relative viability was 0.406 in the experiment with 5-Fluorouracil + OSI-027 (first compound 0.6325 µM); 0.372 in the experiment with 5-Fluorouracil + OSI-027 (first compound 2 µM); 0.375 with Staurosporine + Olaparib (first compound 0.005 µM); 0.212 with Staurosporine + Olaparib (first compound 0.01581 µM); 0.154 with Staurosporine + Olaparib (first compound 0.05 µM); 0.0879 with Staurosporine + Olaparib (first compound 0.1581 µM). Besides, in the experiment with Staurosporine + Olaparib (first compound 0.5 µM), the relative viability was determined as 0.0921.
